Test results from patent publication US7223733B2, “Modulation of TRIP-Br function and method of treating proliferative disorders” (National University of Singapore, priority 2004, dated 2007).
Where no end group is shown, it is not given here. [invdT] = inverted (3'-3') thymidine

How the values were obtained:
[1] = test system: Caski (cervical carcinoma); assay: Anti-proliferative phenotypes in Caski cells; format: cell-based; conditions: data not shown
[2] = test system: Geminin; assay: Protein decay analysis of Geminin in U2OS cells (cycloheximide); format: cell-based, human; conditions: for Geminin steady state levels at 5-h post-CHX treatment: cycloheximide; for Geminin protein decay kinetics: cycloheximide 20 μg/ml, 0-5 h
Description: Protein decay analysis. Transfected or peptide-treated cells were exposed to 20 μg/ml cycloheximide (CHX). Whole cell lysates were prepared from the treated cells at 0, 1, 2, 3, 4 or 5-h post-CHX treatment for Western blot analysis. FIG. 7: Cell cycle protein expression profile and protein decay analysis. (A) Protein expression profile of U2OS cells released from nocodazole arrest in the absence or presence of decoy peptide treatment. Protein expression of various cyclins and Cdks was assessed by Western blotting using whole cell lysates from synchronized U2OS cells at 4, 8, 12, 16, 20 and 24 h after release. Coomassie-stained proteins served as loading controls; (B) U2OS cells transfected with vector backbone (vehicle) or pRc/cyclin E and pCMV/Cdk2 (1 μg each), were arrested at the G2/M boundary by exposure to nocodazole (75 ng/ml) and then released to re-enter the cell cycle. Protein expression of cyclin E and Geminin was assessed using whole cell lysates from synchronized U2OS cells at 0, 4, 8, 12, 16 and 20 h after release; (C) Protein decay analysis of Geminin expression in the absence or presence of cyclin E/Cdk2 over-expression (left panel) or in the absence or presence of decoy peptide treatment (right panel) by Western blotting (WB). Coomassie stained proteins served as the loading control (C).

[3] = test system: cyclins A, D and E; assay: Western blot of cyclins A, D and E in U2OS cells exposed to decoy peptides; format: cell-based, human; conditions: U2OS, 5, 10 or 20 μM, 48 h
Description: Denaturing SDS-PAGE and western blotting. Proteins from whole cell lysate and IP complexes were separated using standard denaturing polyacrylamide gel electrophoresis as described previously (Hsu, S. I. H., et al. EMBO J 20, 2273-2285 (2001)).
FIG. 8: The role(s) of the TRIP-Br integrator function in cyclin E regulation. (A) Western blot analysis of the expression of cyclins A, D and E in whole cell extracts derived from U2OS cells exposed to 5, 10 or 20 μM of decoy peptides for 48 h. Cdk2 served as a loading control; (B) Dosage-dependent effects of decoy peptides on Fbxw7 expression. U2OS cells exposed to 5, 10 or 20 μM of decoy peptides were analyzed for Fbxw7 mRNA transcript levels by semi-quantitative RT-PCR. H-actin was co-amplified as an internal control; (C) cyclin-E and Fbxw7 expression was analyzed by semi-quantitative RT-PCR using total RNA from sub-confluent U2OS ER-E2F-1 cells grown with or without OHT and/or cycloheximide (CHX) for 2 h as indicated. H-actin was included as an internal control.

[4] = test system: cyclin E, Cdk4, cyclin D1 and p27^KIP1; assay: Western blot of cyclin E, Cdk4, cyclin D1 and p27KIP1 in WI-38 cells; format: cell-based, human; conditions: WI-38, 20 h
Description: Western blotting analysis. Cells in 6-well culture dish were washed in cold PBS and lysed in sample buffer (50 mM Tris-Cl, pH 6.8, 2% SDS, 10% glycerol, 0.1% bromophenol blue and 100 mM DTT). Whole cell lysates were heated at 100° C. for 10 minutes prior to electrophoresis. Separation of complex protein mixtures was achieved using a discontinuous polyacrylamide gel electrophoresis system consisting of a stacking gel and a 10% separating gel. Electrophoresis was performed with 1× running buffer (25 mM Tris pH 8.6, 0.19 M glycine, 0.1% SDS) in a mini vertical electrophoresis apparatus (BIO-RAD) at constant voltage (80 V). Separated proteins were transferred to nitrocellulose membrane (Immobilon™-P, Millipore) by electro-blotting (30V overnight at 4° C.) in transfer buffer (50 mM Tris, 384 mM glycine, 20% methanol, 0.01% SDS). Following blocking (1×PBS, 0.5% Tween 20, 4% [w/v] non-fat milk), target proteins were detected using a 1:2,500 dilution of specific primary antibodies. Anti-mouse or anti-rabbit IgG antibodies conjugated with horseradish peroxidase (Santa Cruz) were used to visualize immunoreactive proteins at 1:2,500 dilutions using enhanced chemiluminescence (Pierce).
FIG. 14: (A) E-Br1 or E-Br2 attenuates mitogen-stimulated CCNE gene induction. Sub-confluent WI-38 cells were serum-starved for 72 h. Following DNA enzyme transfection, the cultures were re-stimulated with serum and allowed to proliferate. After 20 h, cells were harvested and total RNA extracted for semi-quantitative RT-PCR to assess CCNE expression. β-actin was included as an internal control. PCR products were resolved by agarose gel electrophoresis and ethidium bromide-stained DNA bands were visualized under UV. […] Sub-confluent WI-38 cells were serum-starved for 72 h. Following transfection with DNA enzyme, the cultures were allowed to proliferate. After 20 h, cells were harvested for western blot (WB) analysis of cyclin E, Cdk4, cyclin D1 and p27^KIP1 expression. Coomassie-stained protein was included as control for normalization.

Substance | response of Caski cells [1] | Geminin steady state levels at 5-h post-CHX treatment [2] | Geminin protein decay kinetics [2] | cyclin E protein level [3] | protein levels of cyclin D1 and cyclin A2 [3] | expression of Cdk4, cyclin D1 and p27^KIP1 [4] | mitogen-induced cyclin E protein expression [4]
ERQIKIWFQNRRMKWKKTGFLTDLTLDDILFADID (ERQIKIWFQNRRMKWKKTGFLTDLTLDDILFADID-NH2) [*Br2] | in manners similar to those exhibited by U2OS cells | remained persistently high | significantly slower decay rate | dose-dependent accumulation of cyclin E protein | without affecting the protein levels |  | 
ERQIKIWFQNRRMKWKKATGCLLDDGLEGLFEDID (ERQIKIWFQNRRMKWKKATGCLLDDGLEGLFEDID-NH2) [*Br1] | in manners similar to those exhibited by U2OS cells | remained persistently high | significantly slower decay rate | dose-dependent accumulation of cyclin E protein | without affecting the protein levels |  | 
5′-T TACCCAACAGGCTAGCTACAACGAATATCACA-3′ (DNA TTACCCAACAGGCTAGCTACAACGAATATCACA; DNA, 3' [invdT], backbone not given here) [E-Br2] |  |  |  |  |  | without altering the expression | prevents mitogen-induced cyclin E expression
5′-T TGCTCAGCAGGCTAGCTACAACGACTTGCTCA-3′ (DNA TTGCTCAGCAGGCTAGCTACAACGACTTGCTCA; DNA, 3' [invdT], backbone not given here) [E-Br1] |  |  |  |  |  | without altering the expression | prevents mitogen-induced cyclin E expression
